# In PubChem BioAssay AID1963983 (Molecular Pharmacology Branch, DTP, NCI, 2024):
# pIC50: −log10 of the molar value.
# Tested on: 186277-243-T-J2-PDC multi-cell spheroid viability
# Assay: Anticancer human tumor 186277-243-T-J2-PDC patient-derived colon adenocarcinoma cell line growth inhibition [PI3K]
# Details: for viability, T/C: stronger effect = lower value
# Method in brief: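 Agents were dosed from a top concentration near clinical Cmax (otherwise 10 microM) in half-log decrements, alone or combined with PI3K inhibitors. The spheroids contain tumor cells plus endothelial (HUVEC) and MSC stroma; viability is measured.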
# [1] = curve of first compound, second compound 0.0316 µM
# [2] = curve of first compound, second compound 0.1 µM
# [3] = curve of first compound, second compound 0.316 µM
# [4] = curve of first compound, second compound 1 µM
# [5] = curve of first compound, second compound 3.16 µM
# [6] = curve of first compound, second compound 10 µM
# [7] = second compound 0.0316 µM, first compound 0.0316 µM
# [8] = second compound 0.0316 µM, first compound 0.1 µM
# [9] = second compound 0.1 µM, first compound 0.0316 µM
# [10] = second compound 0.1 µM, first compound 0.1 µM
# [11] = second compound 0.316 µM, first compound 0.0316 µM
# [12] = second compound 0.316 µM, first compound 0.1 µM
# [13] = second compound 1 µM, first compound 0.0316 µM
# [14] = second compound 1 µM, first compound 0.1 µM
# [15] = second compound 3.16 µM, first compound 0.0316 µM
# [16] = second compound 3.16 µM, first compound 0.1 µM
# [17] = second compound 10 µM, first compound 0.0316 µM
# [18] = second compound 10 µM, first compound 0.1 µM
# 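Note: spheroids exposed to compounds for seven days before viability reading.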
# 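Throughout, for viability, T/C: 100% = DMSO vehicle control viability.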
smiles,measurement,setting,value
Cn1ncnc1[C@H]1c2n[nH]c(=O)c3cc(F)cc(c23)N[C@@H]1c1ccc(F)cc1 + CC(Nc1ncnc2nc[nH]c12)c1cc2cccc(Cl)c2c(=O)n1-c1ccccc1,pIC50,[1],< 7.00
same,pIC50,[2],< 7.00
same,pIC50,[3],< 7.00
same,pIC50,[4],< 7.00
same,pIC50,[5],< 7.00
same,pIC50,[6],< 7.00
same,"viability, T/C","second compound 0.0316 µM, first compound 0.000316 µM",88.3%
same,"viability, T/C","second compound 0.0316 µM, first compound 0.001 µM",94.7%
same,"viability, T/C","second compound 0.0316 µM, first compound 0.00316 µM",86.8%
same,"viability, T/C","second compound 0.0316 µM, first compound 0.01 µM",100%
same,"viability, T/C",[7],104%
same,"viability, T/C",[8],88.9%
same,"viability, T/C","second compound 0.1 µM, first compound 0.000316 µM",93.2%
same,"viability, T/C","second compound 0.1 µM, first compound 0.001 µM",111%
same,"viability, T/C","second compound 0.1 µM, first compound 0.00316 µM",94.9%
same,"viability, T/C","second compound 0.1 µM, first compound 0.01 µM",103%
same,"viability, T/C",[9],99.9%
same,"viability, T/C",[10],99.3%
same,"viability, T/C","second compound 0.316 µM, first compound 0.000316 µM",93.5%
same,"viability, T/C","second compound 0.316 µM, first compound 0.001 µM",107%
same,"viability, T/C","second compound 0.316 µM, first compound 0.00316 µM",96.1%
same,"viability, T/C","second compound 0.316 µM, first compound 0.01 µM",92.5%
same,"viability, T/C",[11],91.3%
same,"viability, T/C",[12],85%
same,"viability, T/C","second compound 1 µM, first compound 0.000316 µM",89.3%
same,"viability, T/C","second compound 1 µM, first compound 0.001 µM",95.5%
same,"viability, T/C","second compound 1 µM, first compound 0.00316 µM",114%
same,"viability, T/C","second compound 1 µM, first compound 0.01 µM",97.4%
same,"viability, T/C",[13],87%
same,"viability, T/C",[14],84.4%
same,"viability, T/C","second compound 3.16 µM, first compound 0.000316 µM",108%
same,"viability, T/C","second compound 3.16 µM, first compound 0.001 µM",107%
same,"viability, T/C","second compound 3.16 µM, first compound 0.00316 µM",102%
same,"viability, T/C","second compound 3.16 µM, first compound 0.01 µM",84.5%
same,"viability, T/C",[15],101%
same,"viability, T/C",[16],99.1%
same,"viability, T/C","second compound 10 µM, first compound 0.000316 µM",99.6%
same,"viability, T/C","second compound 10 µM, first compound 0.001 µM",90.6%
same,"viability, T/C","second compound 10 µM, first compound 0.00316 µM",84.4%
same,"viability, T/C","second compound 10 µM, first compound 0.01 µM",86%
same,"viability, T/C",[17],88.6%
same,"viability, T/C",[18],85%
C[C@@H](NC(=O)c1ncnc(N)c1Cl)c1ncc(C(=O)Nc2cc(C(F)(F)F)c(Cl)cn2)s1,"viability, T/C",compound 0.0316 µM,95.7% [middle of 4 runs]
same,"viability, T/C",compound 0.1 µM,92.9% [middle of 4 runs]
same,"viability, T/C",compound 0.316 µM,92.3% [middle of 4 runs]
same,"viability, T/C",compound 1 µM,99.5% [middle of 4 runs]
same,"viability, T/C",compound 3.16 µM,105% [middle of 4 runs]
same,"viability, T/C",compound 10 µM,79.9% [middle of 4 runs]
same,pIC50,curve of compound,< 5.00
CNC(=O)c1ccc(N2C(=S)N(c3ccc(C#N)c(C(F)(F)F)c3)C(=O)C2(C)C)cc1F + Cc1nc(NC(=O)N2CCCC2C(N)=O)sc1-c1ccnc(C(C)(C)C(F)(F)F)c1,pIC50,[1],< 5.00
same,pIC50,[2],< 5.00
same,pIC50,[3],< 5.00
same,pIC50,[4],< 5.00
same,pIC50,[5],< 5.00
same,pIC50,[6],> 7.50
same,"viability, T/C",[7],83.5%
same,"viability, T/C",[8],90%
same,"viability, T/C","second compound 0.0316 µM, first compound 0.316 µM",102%
same,"viability, T/C","second compound 0.0316 µM, first compound 1 µM",91.9%
same,"viability, T/C","second compound 0.0316 µM, first compound 3.16 µM",103%
same,"viability, T/C","second compound 0.0316 µM, first compound 10 µM",109%
same,"viability, T/C",[9],106%
same,"viability, T/C",[10],92.5%
same,"viability, T/C","second compound 0.1 µM, first compound 0.316 µM",109%
same,"viability, T/C","second compound 0.1 µM, first compound 1 µM",100%
same,"viability, T/C","second compound 0.1 µM, first compound 3.16 µM",114%
same,"viability, T/C","second compound 0.1 µM, first compound 10 µM",95.4%
same,"viability, T/C",[11],97.1%
same,"viability, T/C",[12],95.5%
same,"viability, T/C","second compound 0.316 µM, first compound 0.316 µM",92%
same,"viability, T/C","second compound 0.316 µM, first compound 1 µM",115%
same,"viability, T/C","second compound 0.316 µM, first compound 3.16 µM",102%
same,"viability, T/C","second compound 0.316 µM, first compound 10 µM",86.1%
same,"viability, T/C",[13],106%
same,"viability, T/C",[14],96%
same,"viability, T/C","second compound 1 µM, first compound 0.316 µM",111%
same,"viability, T/C","second compound 1 µM, first compound 1 µM",105%
same,"viability, T/C","second compound 1 µM, first compound 3.16 µM",103%
same,"viability, T/C","second compound 1 µM, first compound 10 µM",86%
same,"viability, T/C",[15],62.7%
same,"viability, T/C",[16],62.6%
same,"viability, T/C","second compound 3.16 µM, first compound 0.316 µM",66.4%
same,"viability, T/C","second compound 3.16 µM, first compound 1 µM",66.7%
same,"viability, T/C","second compound 3.16 µM, first compound 3.16 µM",70.1%
same,"viability, T/C","second compound 3.16 µM, first compound 10 µM",58.7%
same,"viability, T/C",[17],13.9%
same,"viability, T/C",[18],17.7%
same,"viability, T/C","second compound 10 µM, first compound 0.316 µM",14.7%
same,"viability, T/C","second compound 10 µM, first compound 1 µM",14%
same,"viability, T/C","second compound 10 µM, first compound 3.16 µM",15.5%
same,"viability, T/C","second compound 10 µM, first compound 10 µM",13.8%
